Test results published in patent publication US20160271100A1, “METHOD FOR TREATING TUMORS AND RADIOTHERAPY- AND CHEMOTHERAPY-[…] OR EMOTIONAL […] CANNABINOIDS” (GLIA LLC, priority 2014, published 2016).

What was measured:
glioblastoma = assay: Course of glioblastoma (MRI/PET) under chemotherapy with or without topical dronabinol (same patient); type: in vivo, human; conditions: for adverse effects that led to discontinuation of chemotherapy: patient with glioblastoma
Experimental: By way of reminder, the patient described in the two examples set forth above was diagnosed with glioblastoma in February 2010. Approximately 95% of the tumor was surgically removed within 3 days of diagnosis. Following the surgery, the patient was treated with radiation, as well as by chemotherapy with a combination of temozolamide, topotecan, and bevacizumab. […] In May of 2011, the combination therapy was discontinued and the patient received only maintenance bevacizumab. MRI scans were performed every two months to monitor any changes in the brain.
The patient resumed chemotherapy with a combination of temozolamide, etoposide, and bevacizumab. […] The chemotherapy regimen was changed to carboplatin, irinotecan, together with bevacizumab.
As mentioned above, the patient was treated with 2.5 mg topical dronabinol beginning in December 2012 and continuing to the present.
On Mar. 19, 2014, a further increase in size of the tumor was noted. The secondary tumor was unchanged.
In early April 2014, the patient was again treated with temozolamide and bevacizumab.

glioblastoma tumor = conditions: one human study; cited from earlier work
[1] = tested on: chemo brain and brain fog (chemotherapy-associated cognitive or emotional impairment); assay: Daily low-dose topical dronabinol for chemo brain and brain fog induced by long term chemotherapy and radiation (single patient); conditions: 2.5 mg daily applied to forehead
Experimental: A person was diagnosed with glioblastoma in February 2010 and underwent immediate surgery to remove the tumor. Within 6 weeks of the surgery, they began radiotherapy and chemotherapy with a combination of temozolamide, topotecan, and bevacizumab.
Beginning in December of 2012 and continuing through March of 2014, the patient, who was not undergoing any chemotherapy at this time, was treated daily with 2.5 mg of dronabinol applied to their forehead. Daily evaluation by their caretaker and quarterly evaluations by a medical institution were documented during this treatment period.

[2] = tested on: chemo brain and brain fog; assay: Low dose topical dronabinol for chemo brain and brain fog induced by short-term chemotherapy (same patient)
Experimental: The patient was treated again with temozolamide, and bevacizumab.
Each morning, the patient was treated with dronabinol as described in Example 1 supra.

Bevacizumab: chemotherapy agent
adverse effects that led to discontinuation of chemotherapy (glioblastoma): hypertension and proteinuria

O=NN(CCCl)C(=O)NC1CCCCC1 [lomustine]
adverse effects that led to discontinuation of chemotherapy (glioblastoma): hypertension and proteinuria

CCCCCc1cc(O)c2c(c1)OC(C)(C)[C@@H]1CCC(C)=C[C@@H]21 [THC, tetrahydrocannabinol]
benefit of THC instilled into a glioblastoma tumor (glioblastoma tumor): failed to demonstrate a clear-cut benefit

CCCCCc1cc(O)c2c(c1)OC(C)(C)[C@@H]1CCC(C)=C[C@@H]21 [dronabinol, (6aR,10aR)-6a,7,8,10a-tetrahydro-6,6,9-trimethyl-3-pentyl-6H-dibenzo[b,d]-pyran-1-ol]
cognitive functions, emotional skills, and social interaction skills ([1]; December 2012 to March 2014): showed daily and long term improvement
hallucinatory or adverse cognitive effects ([1]; December 2012 to March 2014): no hallucinatory or adverse cognitive effects were observed
time to signs of improved recognition, memory, and social interaction after initiation of treatment ([1]; patient not on chemotherapy): 1 to 2 days
hallucinatory or adverse cognitive effects ([2]; 2.5 mg topical each morning during chemotherapy): no hallucinatory or adverse cognitive effects were observed
time to significant diminishment of brain fog after each dose ([2]; 2.5 mg topical each morning during temozolamide and bevacizumab chemotherapy): ≤ 45 min
duration of the effects of administration ([2]; 2.5 mg topical each morning, six-week period): lasted until the following morning
tumor response by MRI, chemotherapy co-administered with topical dronabinol (glioblastoma; 2.5 mg topical dronabinol continued with temozolamide and bevacizumab, MRI 6 weeks after initiation of chemotherapy): shrinkage of both the primary tumor that had regrown into the extirpated space and the secondary tumor
primary tumor by MRI, topical dronabinol without chemotherapy (glioblastoma; 2.5 mg topical dronabinol, MRI December 6, 2013 and Mar. 19, 2014): increase in size of the primary tumor
secondary tumor by MRI, topical dronabinol without chemotherapy (glioblastoma; 2.5 mg topical dronabinol, Mar. 19, 2014): unchanged
